Test results as given in patent US20260372305A1, “A METHOD FOR CONTROLLING WEEDS” (SYNGENTA CROP PROTECTION AG, priority 2022, published 2026).
Several values for one entry are separate records, joined by “and”; a condition that tells them apart may be missing. Identical values can stand only once.

Columns and labels:
[1] = system: Amaranthus tuberculatus, homozygous for the deletion of glycine at amino acid 210 in PPX2L (G210 deletion); assay: Postemergence control of Amaranthus tuberculatus with G210 deletion in PPX2L (Example 2); assay type: in vivo
[2] = system: Amaranthus tuberculatus with a mutation at amino acid 210; assay: Field trial: control of Amaranthus tuberculatus visually assessed as % weed control (Example 3); assay type: in vivo
Experimental: A field trial was carried out in a plot in Canada. The plot size per replicate was set to 10 m^2. Compound 1 and the standard product saflufenacil were applied to about 4 inch (about 10 cm) tall Amaranthus tuberculatus with a mutation at amino acid 210, using a water volume of 300 I/ha. The efficacy of the tested compounds was visually assessed 14 days after the application and expressed in % weed control, whereas ratings range from 100% being complete control and 0% representing weed populations/growth similar to what is observed in the untreated check. Only species present at a sufficient density and consistency were assessed for reliable ratings.

SMILES | % Survival out of 14 repetitions ([1]; […], 0.5 g ai/ha^−1, postemergence, 14 days after application, Agridex 1% by volume) | % Survival out of 14 repetitions ([1]; […], 1 g ai/ha^−1, postemergence, 14 days after application, Agridex 1% by volume) | % Survival out of 14 repetitions ([1]; […], 2 g ai/ha^−1, postemergence, 14 days after application, Agridex 1% by volume) | % Survival out of 14 repetitions ([1]; […], 4 g ai/ha^−1, postemergence, 14 days after application, Agridex 1% by volume) | % Survival out of 14 repetitions ([1]; […], 8 g ai/ha^−1, postemergence, 14 days after application, Agridex 1% by volume) | % Survival out of 14 repetitions ([1]; […], 16 g ai/ha^−1, postemergence, 14 days after application, Agridex 1% by volume) | % Survival out of 14 repetitions ([1]; […], 32 g ai/ha^−1, postemergence, 14 days after application, Agridex 1% by volume) | % Survival out of 14 repetitions ([1]; […], 64 g ai/ha^−1, postemergence, 14 days after application, Agridex 1% by volume) | plant survival ([1]; at or beyond 32 g ai/ha) | control of PPO inhibitor herbicide resistant Amaranthus tuberculatus with a mutation at amino acid 210 compared with fomesafen ([1]; in vivo) | control of Amaranthus tuberculatus with a mutation at codon 210 compared to saflufenacil [2] | % Survival out of 14 repetitions ([1]; in vivo) | plant survival ([1]; in vivo)
CCOC(=O)[C@]1(C)CC(c2cc(-n3c(=O)n(C)c(=S)n(C)c3=O)c(F)cc2Cl)=NO1 [compound 1, ethyl (5S)-3-[2-chloro-5-(3,5-dimethyl-2,6-dioxo-4-thioxo-1,3,5-triazinan-1-yl)-4-fluoro-phenyl]-5-methyl-4H-isoxazole-5-carboxylate] | 100% | 100% | 100% | 100% | 86% | 50% | 0% | 0% | no plants survived | superior control | equivalent, if not slightly improved control | – | –
CS(=O)(=O)NC(=O)c1cc(Oc2ccc(C(F)(F)F)cc2Cl)ccc1[N+](=O)[O-] [fomesafen, reference compound] | – | – | – | – | – | – | – | – | – | – | – | 100% and 93% | significant plant survival
